Experimental data from article PMC10824666 (Nature Cancer, 2023).
Read-outs that look alike come from different tables or passages of the source. One block for each molecule: values may come before it.

Assays:
MEK5 = target: T1, MEK5 (Homo sapiens, UniProt Q13163); assay: biochemical; design: Eurofins DiscoverX kinase panel, competitive binding assay at 1 uM, percent of DMSO control; conditions: competitive binding, percent of DMSO control
T1 construct: gene MAP2K5
T1 sequence (Q13163 1-448): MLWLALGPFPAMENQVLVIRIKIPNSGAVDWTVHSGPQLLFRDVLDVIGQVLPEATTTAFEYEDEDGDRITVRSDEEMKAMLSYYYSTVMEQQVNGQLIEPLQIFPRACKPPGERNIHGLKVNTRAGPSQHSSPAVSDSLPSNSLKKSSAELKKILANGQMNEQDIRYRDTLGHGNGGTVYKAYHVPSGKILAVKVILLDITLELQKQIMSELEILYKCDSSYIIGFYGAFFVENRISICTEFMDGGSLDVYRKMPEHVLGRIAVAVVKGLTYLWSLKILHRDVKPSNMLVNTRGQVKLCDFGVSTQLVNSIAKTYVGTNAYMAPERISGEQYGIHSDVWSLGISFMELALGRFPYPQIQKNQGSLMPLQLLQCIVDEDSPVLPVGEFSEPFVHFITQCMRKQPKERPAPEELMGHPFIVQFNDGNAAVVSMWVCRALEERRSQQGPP
How it was run: (§1)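 Single-point profiling at 1 µM compound in a competition-binding format against 96 kinases, read out as POC relative to control; n = 1.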

PKC ε = target: T2, PKC ε (Homo sapiens, UniProt Q02156); assay: biochemical; design: Eurofins DiscoverX kinase panel, competitive binding assay at 1 uM, percent of DMSO control; conditions: competitive binding, percent of DMSO control
T2 construct: gene PRKCE
T2 sequence (Q02156 1-737): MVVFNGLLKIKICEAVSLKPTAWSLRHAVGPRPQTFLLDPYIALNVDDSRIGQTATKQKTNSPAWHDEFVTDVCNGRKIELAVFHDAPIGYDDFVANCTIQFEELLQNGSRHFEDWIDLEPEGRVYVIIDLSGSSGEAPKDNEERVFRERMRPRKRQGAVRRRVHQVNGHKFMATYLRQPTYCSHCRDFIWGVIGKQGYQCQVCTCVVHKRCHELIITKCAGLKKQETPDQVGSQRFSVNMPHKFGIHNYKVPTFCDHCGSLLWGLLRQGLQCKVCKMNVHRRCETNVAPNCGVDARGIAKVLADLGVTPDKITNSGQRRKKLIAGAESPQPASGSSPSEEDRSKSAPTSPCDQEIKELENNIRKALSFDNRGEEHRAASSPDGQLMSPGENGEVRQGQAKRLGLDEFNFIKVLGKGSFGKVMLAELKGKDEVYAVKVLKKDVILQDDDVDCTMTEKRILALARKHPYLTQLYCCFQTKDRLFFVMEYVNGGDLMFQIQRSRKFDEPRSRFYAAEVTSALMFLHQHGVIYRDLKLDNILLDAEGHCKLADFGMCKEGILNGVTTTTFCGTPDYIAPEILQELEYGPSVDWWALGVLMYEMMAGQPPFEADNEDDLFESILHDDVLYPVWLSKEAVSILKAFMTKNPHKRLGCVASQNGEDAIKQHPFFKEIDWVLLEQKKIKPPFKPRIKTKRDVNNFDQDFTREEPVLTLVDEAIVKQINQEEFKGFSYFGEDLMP
How it was run: as §1

[1] = read-out: Kinome Profiling performed by Eurofins DiscoverX / AM-1882, 1.0 µM / POC
[2] = read-out: Kinome Profiling performed by Eurofins DiscoverX / AM-5308, 1.0 µM / POC
[3] = read-out: Kinome Profiling performed by Eurofins DiscoverX / AM-0277, 1.0 µM / POC

- remaining activity at 1 µM (MEK5; [1]): 38.5%
- remaining activity at 1 µM (PKC ε; [1]): 93%
SMILES: CC(C)(C)NS(=O)(=O)c1cccc(NC(=O)c2ccc(S(=O)(=O)NC(C)(C)C)cc2N2CCC3(CC2)CC3)c1 [AM-1882]

- remaining activity at 1 µM (MEK5; [2]): 99.5%
- remaining activity at 1 µM (PKC ε; [2]): 97.5%
SMILES: C[C@@H]1CN(c2cccc(NC(=O)c3ccc(NS(=O)(=O)CCO)cc3N3CCC4(CC3)CC4)n2)CCO1 [AM-5308]

- remaining activity at 1 µM (MEK5; [3]): 86%
- remaining activity at 1 µM (PKC ε; [3]): 100%
SMILES: CC(C)(CO)Nc1ccc(C(=O)Nc2cccc(S(=O)(=O)C3CCCC3)c2)c(N2CCC3(CC2)CC3)n1 [AM-0277]
